Measured values as given in article PMC11078216, “Discovery of potent and selective activity-based probes (ABPs) for the deubiquitinating enzyme USP30” (RSC Chemical Biology, 2024).

Biological target: T1, ALDH1A2 (Homo sapiens, UniProt O94788)
T1 construct: endogenous in cells; host or cells: HEK293T
T1 sequence (O94788 1-518): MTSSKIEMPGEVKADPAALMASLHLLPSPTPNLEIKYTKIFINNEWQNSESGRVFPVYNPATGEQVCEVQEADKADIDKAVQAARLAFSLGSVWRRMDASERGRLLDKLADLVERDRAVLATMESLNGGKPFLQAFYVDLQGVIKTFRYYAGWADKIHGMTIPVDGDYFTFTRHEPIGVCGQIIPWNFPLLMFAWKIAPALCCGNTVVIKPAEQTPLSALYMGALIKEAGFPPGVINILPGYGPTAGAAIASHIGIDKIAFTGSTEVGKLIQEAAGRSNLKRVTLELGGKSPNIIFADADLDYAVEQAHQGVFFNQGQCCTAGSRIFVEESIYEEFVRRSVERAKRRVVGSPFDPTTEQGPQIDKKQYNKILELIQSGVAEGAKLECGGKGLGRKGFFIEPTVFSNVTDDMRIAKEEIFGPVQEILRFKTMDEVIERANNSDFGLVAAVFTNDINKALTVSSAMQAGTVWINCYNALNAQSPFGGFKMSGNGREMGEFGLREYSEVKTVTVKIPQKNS
Assay: ABPP chemical proteomics (LC-MS/MS) in HEK293T cells
Assay type: cell-based
Experimental: To explore the selectivity of IMP-2587 and IMP-2586 across the whole proteome, we performed quantitative activity-based protein profiling (ABPP) in HEK293T cells following treatment with IMP-2587 or IMP-2586 (Fig. 3a). After ABP incubation, cells were lysed, and probe-labelled proteins were ligated to biotinylated capture reagents.[27] […] USP30 was outcompeted by corresponding parent inhibitors for each ABP (Fig. 5b and d and Tables S3 and S5, ESI ^†), confirming the high potency and rapid engagement of IMP-2587 and IMP-2586 in cells. […] DESI1 and DESI2 are small ubiquitin-related modifier (SUMO) proteases,[3,29–32] and IMP-2587 and IMP-2586 may offer a starting point for future development of DESI ABPs. […]
d) Live cell probe incubation, lysate click chemistry and precipitation 6-well HEK293T cells were incubated with media containing compounds ABP 2 and ABP 4 at indicated concentrations for 1 h at 37 °C. The cells were washed with PBS and lysed with lysis buffer (50 μL (1% (v/v) Triton X-100, 0.1% (w/v) sodium dodecyl sulfate (SDS), EDTA-free complete protease inhibitor cocktail (1×, Roche) in PBS on ice for 10 min. The lysates were scraped and transferred to corresponding Lo-Bind Eppendorfs. Each lysate was sonicated for 1 minute, and the samples centrifuges at 5,000 x g at 4 °C for 5 minutes to pellet insoluble cellular debris. The supernatant was collected, and protein concentration was determined using the DC Protein Assay (Bio-Rad) as per manufacturer’s instructions, and normalised to lowest concentrated sample (e.g. 1 mg/mL, using lysis buffer). The following “click mixture” was prepared separately, preparing 6 μL for every 100 μL of […]
Capture reagent (AzRB/AzT for ABP 2, YnT/YnB for ABP 4 10 mM in DMSO, 1 vol; final concentration […]
CuSO4 (50 mM in water, 2 vol; final concentration in reaction 1 mM)
TCEP (50 mM in water, 2 vol; final concentration in reaction 1 mM)
TBTA (10 mM in DMSO, 1 vol; final concentration in reaction 100 µM)
The click mixture was vortexed and incubated at room temperature for 2 min before 6 μL of the mixture was added to every 100 μL of lysate. The reaction mixtures were shaken at room temperature for 1 h before being quenched with EDTA (500 mM in H2O) to a final concentration of 10 mM.
Proteins were precipitated by adding H2O (1 vol), MeOH (2 vol) and CHCl3 (0.5 vol), vortexing briefly then centrifuging at 17,000 × g for 5 min. The top H2O/MeOH layer was discarded and the middle layer of protein pellet and lower CHCl3 layer retained. The suspension was washed with MeOH (300 μL), and sonicated to break up the pellet. The proteins were pelleted by centrifugation at 10,000–17000 × g for 5–10 min or until a compact pellet was formed. The protein pellet was washed once more with MeOH (1 mL). The pellet was resuspended by sonicating and completely dissolving in 1% (w/v) SDS in PBS (to 5 mg/mL protein) before being made up to 1 mg/mL protein with PBS.
The lysate samples (10-20 μg) were mixed with 4× Laemmli sample loading buffer (250 mM Tris -HCl pH 6.8, 30% (v/v) glycerol, 10% (w/v) SDS, 0.05% (w/v) bromophenol blue) supplemented with 20% v/v β-mercaptoethanol (BME) and boiled for 10 min at 95 °C. The resulting protein samples were separated according to the protocol in section 3.2.c. Gel were imaged on a Typhoon imager (GE Healthcare; λEx 532 nm, λEm 575 nm for TAMRA. For protein loading quantification, gels were stained with Coomassie blue staining solution overnight, rinsed with water and imaged on an ImageQuant™ LAS 4000 imager (GE Healthcare). f) Neutravidin biotin enrichment (Affinity pull-down)
Click chemistry and precipitation steps were carried out as described in section 3.2.d, on at least 400ug of protein per sample. The pellet was resuspended by sonicating and completely dissolving in 1% (w/v) SDS in HEPES 50 mM pH 8.0, before being made up to 1 mg/mL protein with HEPES 50 mM pH 8.0 to […]
achieve a final concentration of 0.2% SDS. 20uL of each samples was collected as TL (Total lysate) […]
samples. […]

N#CN1CC[C@@H](NC(=O)c2cc(-c3ccccc3Oc3ccc(N=[N+]=[N-])cc3)n[nH]2)C1 [IMP-2586]
Difference (log2 fold change of enrichment) (IMP-2586 labelling vs DMSO, 30 nM, 10 min, HEK293T (Table S4, Fig.5c)): 3.54

C#Cc1cccc(-c2cc(NC(=O)CC3CCN(C#N)C3)on2)c1 (stereo not shown) [IMP-2587]
Difference (log2 fold change of enrichment) (IMP-2587 labelling vs DMSO, 30 nM, 10 min, HEK293T (Table S2, Fig.5a)): 3.97

N#CN1CC[C@H](CC(=O)Nc2cc(-c3cccc(Cl)c3)no2)C1 [compound 1, reference compound]
Difference (log2 fold change of enrichment) (compound 1 out-competition with IMP-2587 labelling, HEK293T (Table S3, Fig.5b)): -3.93

N#CN1CC[C@@H](NC(=O)c2cc(-c3ccccc3Oc3ccccc3)n[nH]2)C1 [compound 3, reference compound]
Difference (log2 fold change of enrichment) (compound 3 out-competition with IMP-2586 labelling, HEK293T (Table S5, Fig.5d)): -2.44
